Data on 20 molecules can be found in US20080269241A1, “BICYCLIC AMINOPROPYL TETRAHYDRO-PYRAZOLO-PYRIDINE MODULATORS OF CATHEPSIN S” (priority 2007, published 2008).

Broadly, the IC50 is the midpoint of a concentration-inhibition curve.

In the first assay the target is T1, human cathepsin S (CatS) (Homo sapiens, UniProt P25774).
T1 construct: made in house; host or cells: baculovirus system (insect cells)
T1 sequence (P25774 115-331): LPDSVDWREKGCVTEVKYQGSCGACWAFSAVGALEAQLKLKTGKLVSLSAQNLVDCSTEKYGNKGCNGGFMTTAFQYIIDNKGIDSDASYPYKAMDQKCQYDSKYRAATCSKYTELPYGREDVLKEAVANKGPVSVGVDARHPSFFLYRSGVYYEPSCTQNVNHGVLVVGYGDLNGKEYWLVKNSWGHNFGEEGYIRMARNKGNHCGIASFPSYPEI
Description: Recombinant human cathepsin S (CatS) fluorogenic substrate inhibition assay. It counts as biochemical.
Conditions: not given
How it is done:
Recombinant human cathepsin S (CatS) was expressed in the baculovirus system and purified in one step with a thiopropyl-sepharose column. […] The assay is run in 150 mM sodium acetate pH 5.0 containing 1.5 mM DTT and 150 mM NaCl. […] Measurements are taken every min for 20 min. The rate is calculated from the slope of the increase in fluorescence and the percent inhibition is calculated from this.
`CN(C)C(=O)NCc1cc(-c2nn(CC(O)CN3CCC(n4c(=O)n(C)c5ccc(N(C)C)nc54)CC3)c3c2CN(S(C)(=O)=O)CC3)ccc1C(F)(F)F` (centres unmarked) [Example 147, 2-Dimethylamino-N-[5-(1-{3-[4-(5-Dimethylamino-1-methyl-2-oxo-1,2-dihydro-imidazo[4,5-b]pyridin-3-yl)-piperidin-1-yl]-2-hydroxy-propyl}-5-methanesulfonyl-4,5,6,7-tetrahydro-1H-pyrazolo[4,3-c]pyridin-3-yl)-2-trifluoromethyl-benzyl]-1,1-dimethyl-urea]: the IC50 turned out to be 140 nM.

The same assay, now with this note: recombinant human CatS, 10 μM Z-Valine-Valine-Arginine-AMC, pH 5.0; average of results obtained; read-out: CatS IC50.
As for `CS(=O)(=O)N1CCc2c(c(-c3ccc(C(F)(F)F)c(CNc4nc5ccccc5[nH]4)c3)nn2CC(O)CN2CCC(N3CCCC3=O)CC2)C1` (centres unmarked) [Example 175, 1-{1-[3-(3-{3-[(1H-Benzoimidazol-2-ylamino)-methyl]-4-trifluoromethyl-phenyl}-5-methanesulfonyl-4,5,6,7-tetrahydro-pyrazolo[4,3-c]pyridin-1-yl)-2-hydroxy-propyl]-piperidin-4-yl}-pyrrolidin-2-one], the IC50 came out at 4150 nM.
The same measure, in the same setting: for `CC(C)=CC(=O)NCc1cc(-c2nn(CC(O)CN3CCC(n4cn[nH]c4=O)CC3)c3c2CN(S(C)(=O)=O)CC3)ccc1C(F)(F)F` (centres unmarked) [Example 268, 3-Methyl-but-2-enoic acid 5-(1-{2-hydroxy-3-[4-(5-oxo-1,5-dihydro-[1,2,4]triazol-4-yl)-piperidin-1-yl]-propyl}-5-methanesulfonyl-4,5,6,7-tetrahydro-1H-pyrazolo[4,3-c]pyridin-3-yl)-2-trifluoromethyl-benzylamide] the value was 10 nM; for `CS(=O)(=O)N1CCc2c(c(-c3ccc(Cl)c(NC(=O)c4ccc(C(F)(F)F)cc4)c3)nn2CCCN2CCN(c3cccc(Cl)c3)CC2)C1` [Example 233, N-[2-Chloro-5-(1-{3-[4-(3-chloro-phenyl)-piperazin-1-yl]-propyl}-5-methanesulfonyl-4,5,6,7-tetrahydro-1H-pyrazolo[4,3-c]pyridin-3-yl)-phenyl]-4-trifluoromethyl-benzamide], 830 nM; for `CS(=O)(=O)N1CCc2c(c(-c3ccc(C(F)(F)F)c(CNC(=O)c4ccc5nccnc5c4)c3)nn2CC(O)CN2CCC(N3CCCC3=O)CC2)C1` (centres unmarked) [Example 139, Quinoxaline-6-carboxylic acid 5-(1-{2-hydroxy-3-[4-(2-oxo-pyrrolidin-1-yl)-piperidin-1-yl]-propyl}-5-methanesulfonyl-4,5,6,7-tetrahydro-1H-pyrazolo[4,3-c]pyridin-3-yl)-2-trifluoromethyl-benzylamide], 490 nM.
For `CS(=O)(=O)N1CCc2c(c(-c3ccc(C(F)(F)F)c(CNC(=O)CO)c3)nn2CCCN2CCC(N3CCCC3=O)CC2)C1` [Example 187, 2-Hydroxy-N-[5-(5-methanesulfonyl-1-{3-[4-(2-oxo-pyrrolidin-1-yl)-piperidin-1-yl]-propyl}-4,5,6,7-tetrahydro-1H-pyrazolo[4,3-c]pyridin-3-yl)-2-trifluoromethyl-benzyl]-acetamide], the 50% inhibitory concentration (IC50) amounted to 1800 nM.
On the same count and under the same terms, in the case of `Cc1ccc(NCc2cc(-c3nn(CCCN4CCC(N5CCCC5=O)CC4)c4c3CN(S(C)(=O)=O)CC4)ccc2Cl)cc1` [Example 208, 1-[1-(3-{3-[4-Chloro-3-(p-tolylamino-methyl)-phenyl]-5-methanesulfonyl-4,5,6,7-tetrahydro-pyrazolo[4,3-c]pyridin-1-yl}-propyl)-piperidin-4-yl]-pyrrolidin-2-one] it was 280 nM.
On to `CS(=O)(=O)N1CCc2c(c(-c3ccc(Cl)c(NC(=O)c4ccc(Cl)cc4)c3)nn2CCCN2CCN(c3cccc(Cl)c3)CC2)C1` [Example 200, 4-Chloro-N-[2-chloro-5-(1-{3-[4-(3-chloro-phenyl)-piperazin-1-yl]-propyl}-5-methanesulfonyl-4,5,6,7-tetrahydro-1H-pyrazolo[4,3-c]pyridin-3-yl)-phenyl]-benzamide], for which the IC50 is 600 nM.
For `CN(C)Cc1cc(-c2nn(CCCN3CCC(N4CCCC4=O)CC3)c3c2CN(S(C)(=O)=O)CC3)ccc1C(F)(F)F` [Example 206, 1-(1-{3-[3-(3-Dimethylaminomethyl-4-trifluoromethyl-phenyl)-5-methanesulfonyl-4,5,6,7-tetrahydro-pyrazolo[4,3-c]pyridin-1-yl]-propyl}-piperidin-4-yl)-pyrrolidin-2-one], the IC50 came out at 2520 nM.
Still for that read-out and setting: in the case of `CC(C)CC(=O)NCc1cc(-c2nn(CC(O)CN3CCC(c4ccccn4)CC3)c3c2CN(S(C)(=O)=O)CC3)ccc1C(F)(F)F` (centres unmarked) [Example 257, N-(5-{1-[2-Hydroxy-3-(3′,4′,5′,6′-tetrahydro-2′H-[2,4′]bipyridinyl-1′-yl)-propyl]-5-methanesulfonyl-4,5,6,7-tetrahydro-1H-pyrazolo[4,3-c]pyridin-3-yl}-2-trifluoromethyl-benzyl)-3-methyl-butyramide] it was 10 nM; in that of `CS(=O)(=O)N1CCc2c(c(-c3ccc(C(F)(F)F)c(CNC(=O)N4CCCCC4)c3)nn2CC(O)CN2CCC(N3CCCC3=O)CC2)C1` (centres unmarked) [Example 112, Piperidine-1-carboxylic acid 5-(1-{2-hydroxy-3-[4-(2-oxo-pyrrolidin-1-yl)-piperidin-1-yl]-propyl}-5-methanesulfonyl-4,5,6,7-tetrahydro-1H-pyrazolo[4,3-c]pyridin-3-yl)-2-trifluoromethyl-benzylamide], 100 nM.
With `CC(C)=CC(=O)NCc1cc(-c2nn(CC(O)CN3CCC(c4ccccn4)CC3)c3c2CN(S(C)(=O)=O)CC3)ccc1C(F)(F)F` (centres unmarked) [Example 263, 3-Methyl-but-2-enoic acid 5-{1-[2-hydroxy-3-(3′,4′,5′,6′-tetrahydro-2′H-[2,4′]bipyridinyl-1′-yl)-propyl]-5-methanesulfonyl-4,5,6,7-tetrahydro-1H-pyrazolo[4,3-c]pyridin-3-yl}-2-trifluoromethyl-benzylamide], the IC50 stood at 10 nM.
For `CS(=O)(=O)N1CCc2c(c(-c3ccc(C(F)(F)F)c(CNC(=O)CN4CCCCC4)c3)nn2CCCN2CCC(N3CCCC3=O)CC2)C1` [Example 135, N-[5-(5-Methanesulfonyl-1-{3-[4-(2-oxo-pyrrolidin-1-yl)-piperidin-1-yl]-propyl}-4,5,6,7-tetrahydro-1H-pyrazolo[4,3-c]pyridin-3-yl)-2-trifluoromethyl-benzyl]-2-piperidin-1-yl-acetamide], the IC50 worked out at 410 nM.
Turning to `CC(C)=CC(=O)NCc1cc(-c2nn(CC(O)CN3CCC(c4c[nH]c5ncccc45)CC3)c3c2CN(S(C)(=O)=O)CC3)ccc1C(F)(F)F` (centres unmarked) [Example 272, 3-Methyl-but-2-enoic acid 5-(1-{2-hydroxy-3-[4-(1H-pyrrolo[2,3-b]pyridin-3-yl)-piperidin-1-yl]-propyl}-5-methanesulfonyl-4,5,6,7-tetrahydro-1H-pyrazolo[4,3-c]pyridin-3-yl)-2-trifluoromethyl-benzylamide], the IC50 was 20 nM.
Consider `CS(=O)(=O)N1CCc2c(c(-c3ccc(C(F)(F)F)c(CNC(=O)CC4CCCCC4)c3)nn2CCCN2CCC(N3CCCC3=O)CC2)C1` [Example 111, 2-Cyclohexyl-N-[5-(5-methanesulfonyl-1-{3-[4-(2-oxo-pyrrolidin-1-yl)-piperidin-1-yl]-propyl}-4,5,6,7-tetrahydro-1H-pyrazolo[4,3-c]pyridin-3-yl)-2-trifluoromethyl-benzyl]-acetamide], for which the IC50 is 100 nM.
On the same count and under the same terms, in the case of `CN(C)c1ccc2c(n1)n(C1CCN(CC(O)Cn3nc(-c4ccc(Cl)c(CNC(=O)c5ccc(F)cc5)c4)c4c3CCN(S(C)(=O)=O)C4)CC1)c(=O)n2C` (centres unmarked) [Example 76, N-[2-Chloro-5-(1-{3-[4-(5-dimethylamino-1-methyl-2-oxo-1,2-dihydroimidazo[4,5-b]pyridin-3-yl)-piperidin-1-yl]-2-hydroxy-propyl}-5-methanesulfonyl-4,5,6,7-tetrahydro-1H-pyrazolo[4,3-c]pyridin-3-yl)-benzyl]-4-fluoro-benzamide] it was 10 nM; in that of `CS(=O)(=O)N1CCc2c(c(-c3ccc(Cl)c(CNc4cccc(-c5ccccc5)c4)c3)nn2CCCN2CCC(N3CCCC3=O)CC2)C1` [Example 210, 1-[1-(3-{3-[3-(Biphenyl-3-ylaminomethyl)-4-chloro-phenyl]-5-methanesulfonyl-4,5,6,7-tetrahydro-pyrazolo[4,3-c]pyridin-1-yl}-propyl)-piperidin-4-yl]-pyrrolidin-2-one], 630 nM.
In the case of `Cc1csc(C(=O)NCc2cc(-c3nn(CC(O)CN4CCC(N5CCCC5=O)CC4)c4c3CN(S(C)(=O)=O)CC4)ccc2C(F)(F)F)c1Cl` (centres unmarked) [Example 136, 3-Chloro-4-methyl-thiophene-2-carboxylic acid 5-(1-{2-hydroxy-3-[4-(2-oxo-pyrrolidin-1-yl)-piperidin-1-yl]-propyl}-5-methanesulfonyl-4,5,6,7-tetrahydro-1H-pyrazolo[4,3-c]pyridin-3-yl)-2-trifluoromethyl-benzylamide], the IC50 was determined as 410 nM.
As to `CS(=O)(=O)N1CCc2c(c(-c3ccc(C(F)(F)F)c(CNCCN4CCCCC4)c3)nn2CC(O)CN2CCC(N3CCCC3=O)CC2)C1` (centres unmarked) [Example 179, 1-{1-[2-Hydroxy-3-(5-methanesulfonyl-3-{3-[(2-piperidin-1-yl-ethylamino)-methyl]-4-trifluoromethyl-phenyl}-4,5,6,7-tetrahydro-pyrazolo[4,3-c]pyridin-1-yl)-propyl]-piperidin-4-yl}-pyrrolidin-2-one], the half-inhibitory concentration (IC50) came to 6250 nM.
Take `CSC(=O)NCc1cc(-c2nn(CCCN3CCC(N4CCCC4=O)CC3)c3c2CN(S(C)(=O)=O)CC3)ccc1C(F)(F)F` [Example 46, [5-(5-Methanesulfonyl-1-{3-[4-(2-oxo-pyrrolidin-1-yl)-piperidin-1-yl]-propyl}-4,5,6,7-tetrahydro-1H-pyrazolo[4,3-c]pyridin-3-yl)-2-trifluoromethyl-benzyl]-thiocarbamic acid S-methyl ester]: the IC50 came to 410 nM.
